These results are taken from patent US9428507B2, “Compounds for the treatment of malaria” (The Broad Institute, Inc., priority 2013, dated 2016).

The subject of the assay is Dd2 strain of P. falciparum. Briefly: Activity against the Dd2 strain of P. falciparum (SYBR Green I, 72-h incubation). Format: cell-based. The following applies: read-out: EC^50 Dd2. In outline: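 Dd2 parasites at 1% parasitemia and 1.0% hematocrit in albumax II screening medium, 72 h at 37° C under 93% N2/4% CO2/3% O2; final DMSO 0.125%. Growth read as SYBR Green I fluorescence (485/530 nm) after lysis and 24 h staining. 20 μM mefloquine defined background, DMSO baseline.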

Where [1] appears, read: Plasmodium falciparum, DD2, 72 h.

Where two headings read alike, the source gives them in different places.

Regarding `CC(=O)Oc1ccc2c3c([nH]c2c1)[C@H](CO)N(C(C)=O)CC31CCN(C(=O)Nc2ccccc2F)CC1` [Compound 138, (R)-1-(1-(benzo[d]thiazol-2-yl)-1′-(hydroxymethyl)-7′-methoxyspiro [piperidine-4,4′-py(R)-2′-acetyl-1-((2-fluorophenyl)carbamoyl)-1′-(hydroxymethyl)-1′,2′,3′,9′-tetrahydrospiro [piperidine-4,4′-pyrido[3,4-b]indol]-7′-ylacetaterido[3,4-b]indol]-2′(1′H,3′H,9′H)-yl)ethanone], the EC50 under setting [1] amounted to 4.5 µM.

As to `COc1cc2[nH]c3c(c2cc1OC)C1(CCN(C(=O)Nc2ccccc2F)CC1)CN(C(C)=O)[C@H]3CO` [Compound 139, (R)-2′-acetyl-N-(2-fluorophenyl)-1′-(hydroxymethyl)-6′,7′-d imethoxy-1′,2′,3′,9′-tetrahydrospiro [piperidine-4,4′-pyrido[3,4-b]indole]-1-carboxamide], the EC50 under setting [1] stood at 5.76 µM.

On to `COc1ccc2c3c([nH]c2c1)[C@H]1COCC(=O)N1CC31CCN(C(=O)Nc2ccccc2F)CC1` [Compound 140, (S)-N-(2-fluorophenyl)-10-methoxy-4-oxo-1,3,4,6,12,12b-hexahydrospiro [[1,4]oxazino[4′,3′:1 ,2]pyrido[3,4-b]indole-7,4′-piperidine]-1′-carboxamide], for which the EC50 under setting [1] turned out to be 2.47 µM.

Turning to `CC(=O)N1CC2(CCN(C(=O)Nc3ccccc3F)CC2)c2c([nH]c3cc(OC(C)C)ccc23)[C@@H]1CO` [Compound 141, (R)-2′-acetyl-N-(2-fluorophenyl)-1′-(hydroxymethyl)-7′-isopropoxy-1′,2′,3′,9′-tetrahydrospiro [piperidine-4,4′-pyrido[3,4-b]indole]-1-carboxamide], the EC50 under setting [1] is 6.71 µM.

`CC(=O)N1CC2(CCN(C(=O)Nc3ccccc3F)CC2)c2c([nH]c3cc(O)ccc23)[C@@H]1CO` [Compound 142, (R)-2′-acetyl-N-(2-fluorophenyl)-7′-hydroxy-1′-(hydroxymethyl)-1′,2′,3′,9′-tetrahydrospiro [piperidine-4,4′-pyrido[3,4-b]indole]-1-carboxamide]: the EC50 under setting [1] stood at 6.04 µM.

As to `COc1ccc2c3c([nH]c2c1)[C@H](CO)N(Cc1ccccc1)CC31CCN(C(=O)Nc2ccccc2F)CC1` [Compound 143, (R)-2′-benzyl-N-(2-fluorophenyl)-1′-(hydroxymethyl)-7′-methoxy-1′,2′,3′,9′-tetrahydrospiro [piperidine-4,4′-pyrido[3,4-b]indole]-1-carboxamide], the EC50 under setting [1] worked out at 5 µM.

On to `COc1ccc2c3c([nH]c2c1)[C@H](CO)N(S(=O)(=O)c1ccc(C)cc1)CC31CCN(C(=O)Nc2ccccc2F)CC1` [Compound 144, (R)-N-(2-fluorophenyl)-1′-(hydroxymethyl)-7′-methoxy-2′-tosyl-1′,2′,3′,9′-tetrahydrospiro [piperidine-4,4′-pyrido[3,4-b]indole]-1-carboxamide], for which, under setting [1], the EC50 came out at 1.08 µM.

`COc1ccc2c3c([nH]c2c1)[C@H](CO)N(S(=O)(=O)C1CC1)CC31CCN(C(=O)Nc2ccccc2F)CC1` [Compound 145, (R)-2′-(cyclopropylsulfonyl)-N-(2-fluorophenyl)-1′-(hydroxymethyl)-7′-methoxy-1′,2′,3′,9′-tetrahydrospiro [piperidine-4,4′-pyrido[3,4-b]indole]-1-carboxamide]: the EC50 under setting [1] turned out to be 0.113 µM.

In the case of `COc1ccc2c3c([nH]c2c1)[C@H](CO)N(S(=O)(=O)C(F)(F)F)CC31CCN(C(=O)Nc2ccccc2F)CC1` [Compound 146, (R)-N-(2-fluorophenyl)-1′-(hydroxymethyl)-7′-methoxy-2′-((trifluoromethyl)sulfonyl)-1′,2′,3′,9′-tetrahydrospiro [piperidine-4,4′-pyrido[3,4-b]indole]-1-carboxamide], the EC50 under setting [1] was 0.269 µM.

For the compound `COc1ccc2c3c([nH]c2c1)[C@H](CO)N(S(=O)(=O)c1ccccc1)CC31CCN(C(=O)Nc2ccccc2F)CC1` [Compound 147, (R)-N-(2-fluorophenyl)-1′-(hydroxymethyl)-7′-methoxy-2′-(phenylsulfonyl)-1′,2′,3′,9′-tetrahydrospiro [piperidine-4,4′-pyrido+[,4-b]indole]-1-carboxamide], the EC50 under setting [1] came out at 0.391 µM.

`CCS(=O)(=O)N1CC2(CCN(C(=O)OC(C)(C)C)CC2)c2c([nH]c3cc(OC)ccc23)[C@@H]1CO` [Compound 148, (R)-tert-butyl 2′-(ethylsulfonyl)-1′-(hydroxymethyl)-7′-methoxy-1′,2′,3′,9′-tetrahydrospiro [piperidine-4,4′-pyrido[3,4-b]indole]-1-carboxylate]: the EC50 under setting [1] was determined as 8.53 µM.

`CCCS(=O)(=O)N1CC2(CCN(C(=O)Nc3ccccc3F)CC2)c2c([nH]c3cc(OC)ccc23)[C@@H]1CO` [Compound 149, (R)-N-(2-fluorophenyl)-1′-(hydroxymethyl)-7′-methoxy-2′-(propylsulfonyl)-1′,2′,3′,9′-tetrahydrospiro [piperidine-4,4′-pyrido[3,4-b]indole]-1-carboxamide]: under setting [1], the EC50 turned out to be 0.221 µM.

For `CCS(=O)(=O)N1CC2(CCN(C(=O)Nc3ccccc3F)CC2)c2c([nH]c3cc(OC)ccc23)[C@@H]1CO` [Compound 150, (R)-2′-(ethylsulfonyl)-N-(2-fluorophenyl)-1′-(hydroxymethyl)-7′-methoxy-1′,2′,3′,9′-tetrahydrospiro [piperidine-4,4′-pyrido[3,4-b]indole]-1-carboxamide], the EC50 under setting [1] fell in the range of 0.014 to 0.058 µM.

“Mixture of (1R,3′R) and (1R,3′S)-2-acetyl-1- (((tert-butyldimethylsilyl) oxy)methyl)-N- (2-fluorophenyl)-7-methoxy- 1,2,3,9-tetrahydrospiro [pyrido[3,4-b]indole- 4,3′-pyrrolidine]-1′- carboxamide compound with (1R,3′S)- 2-acetyl-1- (((tert-butyldimethylsilyl) oxy)methyl)-N-(2- fluorophenyl)-7-methoxy- 1,2,3,9- tetrahydrospiro[pyrido [3,4-b]indole-4-3′- pyrrolidine]-1′- carboxamide (1:1) [Compound 75]”: the EC50 was 3.21 µM.

For the compound “Mixture of (1R,3′R) and (1R,3′S)-tert-butyl 2-acetyl-1-(((tert- butyldimethylsilyl)oxy) methyl)-7-methoxy- 1,2,3,9- tetrahydrospiro [pyrido[3,4-b]indole- 4,3′-pyrrolidine]-1′- carboxylate compound with (1R,3′S)-tert-butyl 2-acetyl-1- (((tert-butyldimethylsilyl) oxy)methyl)-7- methyoxy-1,2,3,9- tetrahydrospiro[pyrido [3,4-b]indole-4,3′- pyrrolidine]-1′- carboxylate (1:1) [Compound 76]”, the EC50 stood at 1.47 µM.

Consider “Mixture of (1R,3′R) and (1R,3′s)-2-acetyl-N-(2- fluorophenyl)-1- (hydroxymethyl)-7- methoxy-1,2,3,9- tetrahydrospiro[pyrido [3,4-b]indole-4,3′- pyrrolidine]-1′- carboxamide compound with (1R,3′S)-2- acetyl-N-(2- fluorophenyl)-1- (hydroxymethyl)-7- methoxy- 1,2,3,9-tetrahydrospiro [pyrido[3,4-b] indole-4,3′-pyrrolidine]- 1′-carboxamide (1:1) [Compound 72]”, for which the EC50 is 16.5 µM.
